{
  "source": "patent US20140343014A1",
  "about": "“COMBINATION OF A CERTAIN DPP-4 INHIBITOR AND VOGLIBOSE” (BOEHRINGER INGELHEIM INTERNATIONAL GMBH, priority 2013, published 2014)",
  "test": "Pharmacokinetics of BI 1356 in patients with type 2 diabetes, multiple oral doses once daily for 12 days",
  "settings": "therapeutic oral dose levels; listed as BI 1356",
  "note": "“Also recorded” adds a separate entry of the source.",
  "data": [
    {"molecule": "CC#CCn1c(N2CCC[C@@H](N)C2)nc2c1c(=O)n(Cc1nc(C)c3ccccc3n1)c(=O)n2C", "note": "[linagliptin]", "values": [
      {"measurement": "route of excretion", "value": "mainly excreted via the liver; also recorded: primarily excreted unchanged via the bile"}
    ]}
  ]
}
